# Test results taken from article PMC5057115, “Cathelicidins in the Tasmanian devil (Sarcophilus harrisii)” (Scientific Reports, 2016).
# Where no end group is shown, it is not given here.
# Key:
# S. aureus ATCC 29213 = assay: microbe, parasite or virus in culture; type: cell-based, Staphylococcus aureus; details: ATCC 29213, 24 h
# Procedure: (§1) Tissue expression of devil cathelicidin prepropeptides was determined by real-time PCR on a range of secretory, immune, reproductive, gastrointestinal and respiratory tissues, as well as BLAST searches of the milk transcriptome. Opportunistic tissue samples for real-time PCR were collected from Taronga Zoo (Sydney) from devils which were subject to euthanasia due to old age and advanced disease. The mature peptides of all six devil cathelicidins were synthesised by ChinaPeptides Co. Ltd. and their antimicrobial activity against bacterial and fungal pathogens determined by broth microdilution susceptibility assay according to clinical laboratory standards institute guidelines. Antimicrobial activity was expressed as minimum inhibitory concentration (MIC). Cytotoxicity was assessed in the human cell line A549 and haemolytic activity determined against human blood. Statistical significance of peptide effect on cell survival in comparison to the untreated control was calculated using a one sample t-test. Pouch microbiome analysis was performed on swabs from the pouch of lactating and non-lactating devils to detect changes in microbe populations. Pouch swab collection was carried out in accordance with the Save the Tasmanian Devil Program and was approved by the Animal Ethics Committee of the University of Sydney (permit number 681). […]
# (§2) base (YNB) for fungi, from a concentration of 64μg/mL to 0.125μg/mL in a final volume of 100 μL .
# Two antibiotics, ampicillin and tetracycline, were included as a positive control for bacteria, and the antifungal drug fluconazole for fungi. A well containing cells and media only was used as a “no drug” control to ensure that cultures grew normally. Bacteria were subcultured on Mueller Hinton agar (MHA) or Sheep blood agar (BA) for 24 hours at 35 °C for Staphylococcus spp., Pseudomonas spp., Enterococcus spp. and E.coli, with 5% CO2 for Streptococcus spp., K.pneumoniae, P.multocida, L.monocytogenes and N.asteroides. Similarly, fungi were subcultured on Sabouraud agar (SAB) at 35 °C for 24 hours prior to the test. Colonies were resuspended in saline and the OD530 measured with a McFarland reader. If necessary the suspension was diluted to 0.45-0.55 McFarland units with saline. […] Assays Antimicrobial activity was expressed as minimum inhibitory concentration (MIC), which was defined as the lowest concentration of cathelicidin preventing visible growth, relative to the negative control. […]
# (§3) 570nm and 620nm using the Victor 3 multilabel plate reader (PerkinElmer). […] To x i city of cathelicidins was calculated according to Invitrogen recommendations and expressed as percentage cell survival compared to the untreated growth control. […]
# (§4) Haemolytic activity was assessed using 10mL of human blood collected into potassium -ED T A vacutainers (BD). […]
# [1] = tested on: Methicillin resistant S. aureus (MRSA); type: cell-based, Staphylococcus aureus; details: broth microdilution (CLSI), 64 to 0.125 μg/mL, 24 h at 35 °C, human clinical isolate
# Procedure: as §1, §2
# Two antibiotics, ampicillin and tetracycline, were included as a positive control for bacteria, and the antifungal drug fluconazole for fungi. A well containing cells and media only was used as a “no drug” control to ensure that cultures grew normally. […] Colonies were resuspended in saline and the OD530 measured with a McFarland reader. […] Assays Antimicrobial activity was expressed as minimum inhibitory concentration (MIC), which was defined as the lowest concentration of cathelicidin preventing visible growth, relative to the negative control. […]
# DMEM and positive control of dimethylsulfoxide (DMSO) (1%) were also included. Following incubation for a further 24 hours, cell viability was determined using alamar blue (Invitrogen) which was added to each well. The plates were incubated for 24 hours, then the absorption measured at 570nm and 620nm using the Victor 3 multilabel plate reader (PerkinElmer). […] To x i city of cathelicidins was calculated according to Invitrogen recommendations and expressed as percentage cell survival compared to the untreated growth control. […]
# (§5) Haemolytic activity was assessed using 10mL of human blood collected into potassium -ED T A […]
# C. albicans = type: cell-based; details: broth microdilution (CLSI), YNB, 64 to 0.125 μg/mL, 48 hours at 35 °C; human clinical isolate
# Procedure: as §1, §2
# (§6) Two antibiotics, ampicillin and tetracycline, were included as a positive control for bacteria, and the antifungal drug fluconazole for fungi. A well containing cells and media only was used as a “no drug” control to ensure that cultures grew normally. Bacteria were subcultured on Mueller Hinton agar (MHA) or Sheep blood agar (BA) for 24 hours at 35 °C for Staphylococcus spp., Pseudomonas spp., Enterococcus spp. and E.coli, with 5% CO2 for Streptococcus spp., K.pneumoniae, P.multocida, L.monocytogenes and N.asteroides. Similarly, fungi were subcultured on Sabouraud agar (SAB) at 35 °C for 24 hours prior to the test. Colonies were resuspended in saline and the OD530 measured with a McFarland reader. If necessary the suspension was diluted to 0.45-0.55 McFarland units with saline. Following a 1:150 dilution for bacteria and twostep dilution for fungi (1:50, 1:20), 100 μL of microorganisms (1x106 – 5 x10^5 cells/mL) were pipetted into wells 2-12, the first well acting as a negative control. Colony counts were performed using a 1:1000 dilution for bacteria and 1:10 for fungi spread onto MHA/BA or SAB plates respectively. The 96 well microdilution and agar plates were incubated for 24 hours at 35 °C (Escherichia coli, Staphylococcus spp., Enterococcus spp. and Pseudomonas spp.), with 5% CO2 (Streptococcus spp. Pasteurella multocida, Klebsiella pneumoniae, Listeria monocytogenes a nd Nocardia asteroids) for bacteria, and 35 °C for 48 hours (Candida spp .) or 72 hours (Cryptococcus spp.) for fungi. Assays Antimicrobial activity was expressed as minimum inhibitory concentration (MIC), which was defined as the lowest concentration of cathelicidin preventing visible growth, relative to the negative control. […]
# (§7) DMEM and positive control of dimethylsulfoxide (DMSO) (1%) were also included. Following incubation for a further 24 hours, cell viability was determined using alamar blue (Invitrogen) which was added to each well. The plates were incubated for 24 hours, then the absorption measured at 570nm and 620nm using the Victor 3 multilabel plate reader (PerkinElmer). The assay was performed on two separate occasions. To x i city of cathelicidins was calculated according to Invitrogen recommendations and expressed as percentage cell survival compared to the untreated growth control. A significant difference between cathelicidin treated and control cell survival was tested using a o ne sample t-test (p<0.05).
# as §5
# (§8) vacutainers (BD). […]
# C. glabrata = type: cell-based; details: broth microdilution (CLSI), YNB, 64 to 0.125 μg/mL, 48 hours at 35 °C; human clinical isolate
# Procedure: as §1, §2, §6, §7, §5, §8
# N. asteroides* = type: cell-based; details: broth microdilution (CLSI), 64 to 0.125 μg/mL, 24 h at 35 °C with 5% CO2; animal isolate
# Procedure: as §1, §2, §6, §7, §5, §8
# S. agalactiae = type: cell-based; details: broth microdilution (CLSI), 64 to 0.125 μg/mL, 24 h at 35 °C with 5% CO2; human clinical isolate
# Procedure: as §1, §2, §6, §7, §5, §8
# S. anginosus = type: cell-based; details: broth microdilution (CLSI), 64 to 0.125 μg/mL, 24 h at 35 °C with 5% CO2; human clinical isolate
# Procedure: as §1, §2, §6, §7, §5, §8
# [2] = tested on: S. dysgalactiae subs. equisimilis; type: cell-based; details: broth microdilution (CLSI), 64 to 0.125 μg/mL, 24 h at 35 °C with 5% CO2; human clinical isolate
# Procedure: as §1, §2, §6, §7, §5, §8
# S. equi* = type: cell-based; details: broth microdilution (CLSI), 64 to 0.125 μg/mL, 24 h at 35 °C with 5% CO2; animal isolate
# Procedure: as §1, §2, §6, §7, §5, §8
# S. lutetiensis = type: cell-based; details: broth microdilution (CLSI), 64 to 0.125 μg/mL, 24 h at 35 °C with 5% CO2; human clinical isolate
# Procedure: as §1, §2, §6, §7, §5, §8
# S. mutans = type: cell-based; details: broth microdilution (CLSI), 64 to 0.125 μg/mL, 24 h at 35 °C with 5% CO2; human clinical isolate
# Procedure: as §1, §2, §6, §7, §5, §8
# S. oralis/mitis group = type: cell-based; details: broth microdilution (CLSI), 64 to 0.125 μg/mL, 24 h at 35 °C with 5% CO2; human clinical isolate
# Procedure: as §1, §2, §6, §7, §5, §8
# S. salivarius = type: cell-based; details: broth microdilution (CLSI), 64 to 0.125 μg/mL, 24 h at 35 °C with 5% CO2; human clinical isolate
# Procedure: as §1, §2, §6, §7, §5, §8
# L. monocytogenes* = type: cell-based, Listeria monocytogenes; details: broth microdilution (CLSI), 64 to 0.125 μg/mL, 24 h at 35 °C with 5% CO2; animal isolate
# Procedure: as §1, with “populations.” for “populations. Pouch swab collection was carried out in accordance with the Save the Tasmanian Devil Program and was approved by the Animal Ethics Committee of the University of Sydney (permit number 681).”
# Two antibiotics, ampicillin and tetracycline, were included as a positive control for bacteria, and the antifungal drug fluconazole for fungi. […] Colonies were resuspended in saline and the OD530 measured with a McFarland reader. […] Assays Antimicrobial activity was expressed as minimum inhibitory concentration (MIC), which was defined as the lowest concentration of cathelicidin preventing visible growth, relative to the negative control. […]
# as §3, §4
Sequence,MIC (S. aureus ATCC 29213) [µg/mL],MIC [1] [µg/mL],MIC (C. albicans) [µg/mL],MIC (C. glabrata) [µg/mL],MIC (N. asteroides*) [µg/mL],MIC (S. agalactiae) [µg/mL],MIC (S. anginosus) [µg/mL],MIC [2] [µg/mL],MIC (S. equi*) [µg/mL],MIC (S. lutetiensis) [µg/mL],MIC (S. mutans) [µg/mL],MIC (S. oralis/mitis group) [µg/mL],MIC (S. salivarius) [µg/mL],MIC (L. monocytogenes*) [µg/mL]
KRIGLIRLIGKILRGLRRLG [Saha-CATH5],64,32,>64,>64,>64,64,32,>64,64,>64,>64,64,>64,>64
KRIRFFERIRDRLRDLGNRIKNRIRDFFS [Saha-CATH6],>64,–,>64,>64,>64,>64,64,>64,>64,>64,>64,64,>64,>64
KRMGIFHLFWAGLRKLGNLIKNKIQQGIENFLG [Saha-CATH3],>64,–,>64,>64,>64,>64,>64,>64,>64,>64,>64,>64,>64,>64
